US12391701B2, “Chromene-based compounds, methods and uses thereof” (University of Minho, priority 2019, dated 2025)

Key:
Format in all cases: cell-based
[1] = system: renal carcinoma cell line A498; experiment: Cell viability (sulforhodamine B), A498; conditions: Homo sapiens, Table 5
Description: In an embodiment, the antiproliferative activity of the compounds was further determined against renal carcinoma cell lines and non-neoplastic kidney cell line.
(§1) In an embodiment, three human breast cancer cell lines Hs578T, MDA-MB-468 and MCF-7, and a normal breast cell line MCF-10A, were obtained from ATCC (American Type Culture Collection). The cancer cell lines were cultured in Dulbecco's modified Eagle medium, 4.5 g/l glucose (DMEM, Gibco) supplemented with 10% heating inactivated Fetal Bovine Serum (FBS, Gibco) and 1% antibiotic solution (Penicillin-Streptomycin, Gibco). The normal cell line was cultured in Dulbecco's Modified Eagle Medium: Nutrient Mixture F-12 (DMEM/F12, Gibco) supplemented with 5% heating inactivated FBS (Gibco), 1% antibiotic solution (Penicillin-Streptomycin, Gibco), 1% steroid hormone (Hydrocortisone, Sigma-Aldrich), 0.1% peptide hormone (Insulin, Sigma-Aldrich) and 0.01% protein complex (Cholera Toxin, Gibco). Two distinct human acute myeloid leukemia (AML) cell lines, HL-60 (FAB M2) and KG-1 (erythroleukemia-FAB M6), and one human lymphoblastic leukemia (ALL) cell line, Jurkat (T cell type), were also used. These three cell lines were obtained from German Collection of Microorganisms and Cell cultures (DMSZ®, Deutsche Sammlung von Mikroorganismen and Zellkulturen in German). Cells were cultured in RPMI 1640 medium (Biochrom®-Merck Millipore) supplemented with 10% heating inactivated FBS (Biochrom®-Merck Millipore) and 1% antibiotic/antimitotic mixture (Invitrogen®). Three human glioblastoma (GBM) cell line models, two established and commercially available cell lines (U87MG and GAMG, kind gift from Rui M. Reis) and one primary GBM culture (GLIB) were also used. GBM cells were cultures in DMEM (Biochrom-Merck Millipore), all supplemented with 10% FBS. The Renal cell carcinoma cell lines A498, 786-O, Caki-2 and HK2 were obtained from ATCC. The cancer cell line A498 was cultured in MEM medium (Biochrom®-Merck Millipore), 786-O was cultured in RPMI 1640 medium (Biochrom®-Merck Millipore), Caki-2 was cultured in Mc Coys medium (Biochrom®-Merck Millipore) and HK2 was cultured in RPMI 1640 medium (Biochrom®-Merck Millipore). All the media were supplemented with 10% heat inactivated FBS (Biochrom®-Merck Millipore) and 1% antibiotic/antimitotic mixture (Invitrogen®). All cells were grown in a humidified incubator at 37° C. and 5% CO2. For all assays, DMSO (Dimethyl Sulfoxide, Sigma-Aldrich) controls were used.
(§2) In an embodiment, cell viability assays were performed. MCF-7, Hs578T and MCF-10A cells were plated in triplicate in 96-multiwell culture plates, at 3000 cells per mL, or 5000 cells per mL for MDA-MB-468 (100 μL/well). The cells were then allowed to adhere in complete medium, over a period of 18-20 hours. Cells were subsequently treated with 7 different concentrations (from 0.1 to 40 μM or 5 to 60 μM) of compounds or control in fresh medium. HL-60, KG-1 and Jurkat cell lines were plated in 96-multiwell culture plates at 50.000 cells/100 μL per well and treated with different concentrations (from 0.001 to 2 μM) of the compounds described (or control). Cells were plated, in triplicate, at an initial density of 2000 cells/well for GAMG, 4000 cells/well for GL18 and 6000 cells/well for U87MG, in 96-well plates, and allowed to adhere for 18-20 hours. Cells were then treated with different concentrations of the compounds (0.005 to 100 μM) or with control. A498 and 786-O cells were plated at 2000 cells per mL, Caki-2 cells were plated at 3000 cells per mL and HK2 cells were plated at 2000 cells per mL in triplicate, in 96-multiwell culture plates (100 μL/well), and allowed to adhere over a period of 18-20 hours in complete medium. The cells were then treated with 7 different concentrations (from 0.1 to 40 μM or 5 to 60 μM) of compounds or control in fresh medium. […]

Caki-2 parental cells = experiment: BrdU proliferation assay, Caki-2 parental; conditions: 24 and 48 hours, IC50 and ½IC50
TNBC cell line Hs578t = experiment: Cell viability assay (MTS), Hs578t; conditions: Homo sapiens, Hs-578T; 72 h incubation
Excerpt: (§3) In an embodiment, for a comparison study, monomers and respective dimers were selected and further evaluated in Hs578t and MDA-MB-468 breast cell lines. […] These cell lines correspond to the basal-like subtype of breast cancer, included in the known triple negative subtype, since they are negative for Estrogen receptor (ER), progesterone receptor (PR) and Human epidermal growth factor receptor 2 (HER2) molecular markers. The clinical behaviour of these breast cancer subtype is very aggressive and there is still no specific molecular therapy available.
as §1
as §2, with “control.” for “control. A498 and 786-O cells were plated at 2000 cells per mL, Caki-2 cells were plated at 3000 cells per mL and HK2 cells were plated at 2000 cells per mL in triplicate, in 96-multiwell culture plates (100 μL/well), and allowed to adhere over a period of 18-20 hours in complete medium. The cells were then treated with 7 different concentrations (from 0.1 to 40 μM or 5 to 60 μM) of compounds or control in fresh medium.”

[2] = system: TNBC cell line MDA-MB-468; experiment: Cell viability assay (MTS), MDA-MB-468; conditions: Homo sapiens, 72 h incubation
Excerpt: as §3
as §1, with “For all assays, DMSO (Dimethyl Sulfoxide, Sigma-Aldrich) controls were used.” left out

glioma cell line U87 = experiment: Cell viability MTS assay, U87; conditions: Homo sapiens, 72 hours
Description: In an embodiment, the antiproliferative activity of compounds MC408, MC409, MC421 and MC406 was further determined against glioma cell lines (U87, GAMG and GL18) and acute leukemia cell lines (HL-60, KG-1 and Jurkat). This was done in order to evaluate if the compounds presented an equally interesting anticancer profile in other cancer cell models. Cell viability was determined using the MTS assay, after exposure of the cells to the respective compounds for 72 hours at appropriate concentration ranges to determine the respective IC50 values.
as §1, with “For all assays, DMSO (Dimethyl Sulfoxide, Sigma-Aldrich) controls were used.” left out

[3] = system: A498 rapamycin-resistant cells; experiment: BrdU proliferation assay, A498 rapamycin-resistant; conditions: 24 and 48 hours, IC50 and ½IC50
A498 parental cells = experiment: BrdU proliferation assay, A498 parental; conditions: 24 and 48 hours, IC50 and ½IC50

SMILES	IC50 [1]	effect on cell proliferation (BrdU) (Caki-2 parental cells)	IC50 (TNBC cell line Hs578t)	IC50 [2]	IC50 (glioma cell line U87)	effect on cell proliferation (BrdU) [3]	effect on cell proliferation (BrdU) (A498 parental cells)
COc1cccc2c1Oc1nc(-c3ccccc3)[nH]c1C2 [MC350, 5-methoxy-2-phenyl-3,9-dihydrochromeno[2,3-d]imidazoles]	830 nM	decrease cell proliferation					
COc1cccc2c1Oc1nc(-c3ccc(F)cc3)[nH]c1C2C1c2cccc(OC)c2Oc2nc(-c3ccc(F)cc3)[nH]c21 (stereo not shown) [MC406, 2,2′-bis(4-fluorophenyl)-5,5′-dimethoxy-1,1,9,9′-tetrahydro-9,9′-bichromeno[2,3-]imidazoles]	1160 nM		53 nM	320 nM	0.17 µM		
COc1cccc2c1Oc1nc(-c3ccccc3F)[nH]c1C2 [MC407, 2-(2-fluorophenyl)-5-methoxy-3,9-dihydrochromeno[2,3-d]imidazoles]	1360 nM						
COc1cccc2c1Oc1nc(-c3ccc(Br)cc3)[nH]c1C2 [MC408, 2-(4-bromophenyl)-5-methoxy-3,9-dihydrochromeno[2,3-d]imidazoles]	140 nM		47 nM	27 nM	1.85 µM	significant decrease in cell proliferation	significant decrease in cell proliferation
COc1cccc2c1Oc1nc(-c3ccc(F)cc3)[nH]c1C2 [MC409, 2-(4-fluorophenyl)-5-methoxy-3,9-dihydrochromeno[2,3-d]imidazoles]	560 nM		270 nM	120 nM	0.37 µM		
COc1cccc2c1Oc1nc(-c3cc(F)cc(F)c3O)[nH]c1C2 [MC410, 2,4-difluoro-6-(5-methoxy-3,9-dihydrochromeno[2,3-d]imidazol-2-yl)phenol]			> 20000 nM				
COc1ccccc1-c1nc2c([nH]1)Cc1cccc(OC)c1O2 [MC411, 5-methoxy-2-(2-methoxyphenyl)-3,9-dihydrochromeno[2,3-]imidazoles]			8610 nM				
COc1cccc2c1Oc1nc(-c3ccc(O)cc3)[nH]c1C2 [MC413, 4-(5-methoxy-3,9-dihydrochromeno[2,3-d]imidazol-2-yl)phenol]	960 nM	decrease cell proliferation	990 nM			significant decrease in cell proliferation	significant decrease in cell proliferation
CCOc1ccc(-c2nc3c([nH]2)Cc2cccc(OC)c2O3)cc1 [MC415, 2-(4-ethoxyphenyl)-5-methoxy-3,9-dihydrochromeno[2,3-d]imidazoles]	120 nM		580 nM				
COc1ccc(-c2nc3c([nH]2)Cc2cccc(OC)c2O3)c(Br)c1O [MC416, 2-bromo-6-methoxy-3-(5-methoxy-3,9-dihydrochromeno[2,3-]imidazol-2-yl)phenol]			3160 nM				
COc1cccc2c1Oc1nc(-c3ccc(Br)cc3)[nH]c1C2C1c2cccc(OC)c2Oc2nc(-c3ccc(Br)cc3)[nH]c21 (stereo not shown) [MC421, 2,2′-bis(4-bromophenyl)-5,5′-dimethoxy-1,1,9,9′-tetrahydro-9,9′-bichromeno[2,3-]imidazoles]	340 nM	decrease cell proliferation	35 nM	440 nM	0.034 µM	significant decrease in cell proliferation	significant decrease in cell proliferation
